Laboratory results as given in patent US20070249706A1, “USE OF CERTAIN BIPHENYL COMPOUNDS FOR PROTECTION OF NEURONS AND OLIGODENDROCYTES IN THE TREATMENT OF MULTIPLE SCLEROSIS (MS)” (AVENTIS PHARMACEUTICALS INC., priority 2004, published 2007).

What was measured:
ERβ = molecular target: T1, ERβ (Homo sapiens, UniProt Q92731); assay: Fluorescence Polarization Competition Assay, ERβ binding (Panvera kit); details: for IC50: ER, fluorescence polarization competition; for ER[…] selectivity Fold Diff: ratio of the two ER binding IC50 values
T1 construct: purchased Panvera P2700
T1 sequence (Q92731 whole entry): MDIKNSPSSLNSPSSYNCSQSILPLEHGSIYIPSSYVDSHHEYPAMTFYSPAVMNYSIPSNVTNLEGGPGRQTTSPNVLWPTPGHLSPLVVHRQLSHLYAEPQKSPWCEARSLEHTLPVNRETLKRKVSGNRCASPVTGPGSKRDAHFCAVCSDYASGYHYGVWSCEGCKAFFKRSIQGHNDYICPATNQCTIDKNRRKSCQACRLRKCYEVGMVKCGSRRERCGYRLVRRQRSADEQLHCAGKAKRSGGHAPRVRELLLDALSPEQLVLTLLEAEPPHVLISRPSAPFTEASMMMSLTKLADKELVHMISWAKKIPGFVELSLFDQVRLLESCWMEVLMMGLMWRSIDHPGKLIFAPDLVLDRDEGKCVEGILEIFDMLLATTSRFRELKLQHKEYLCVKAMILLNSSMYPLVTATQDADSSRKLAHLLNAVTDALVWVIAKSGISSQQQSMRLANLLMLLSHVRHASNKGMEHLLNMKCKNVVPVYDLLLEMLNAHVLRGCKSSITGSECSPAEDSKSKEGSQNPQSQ
Experimental: (§1) A number of compounds were tested for ERα and ERβ binding using Panvera's Fluorescence Polarization Competition Assay Kits (cat. nos. P2698 and P2700). Briefly, ERα or ERβ were thawed on ice from −80° C. An estrogen receptor and fluorescent ligand (Fluormone™) complex was formed at a 15/1 molar ratio for ERα and at a 10/1 molar ratio for ER≈ (2X complex). Serial dilutions of the test compounds were made in assay buffer and the assay was initiated by adding 50 ul of the 2X receptor-ligand complex to 50 ul of compound solution in black 96-well plates. Zero percent competition (theoretical maximum polarization) was measured in wells containing 50 ul of buffer and 50 ul of the 2X receptor-ligand complex. The plates were incubated after gentle shaking in the dark at room temperature. Polarization values (mP) were read no longer than 7 hours after the reaction was started with a FARCyte Fluorescent reader (Amersham) at excitation and emission wavelengths of 485 nm and 535 nm, respectively. Data was analyzed using non-linear regression and IC50 values determined using GraphPad Prism. Estradiol was used as the reference compound.

[1] = system: primary rat oligodendrocyte progenitor cells; assay: Oligodendrocyte toxicity assay, protection of oligodendrocyte progenitors (OLP) against SIN-1, LDH release; assay type: cell-based; details: 10 nM compound, 1 hour pretreatment, SIN-1 toxin, LDH after 24 hours
Experimental: (§2) Oligodendrocyte Toxicity Assay
(§3) Primary rat oligodendrocyte progenitor cells were obtained from the cerebra of 2-3 day old postnatal rats (Sprague Dawley). The meninges were removed and tissue was mechanically dissociated. Cells were plated on T75 flasks and fed with DMEM +10% FBS.
(§4) Enriched OLPs were collected by mechanical separation from the astrocytic monolayer and were expanded in serum free media (SFM) supplemented with the mitogens, PDGF-AA (10 ng/mI) and FGF-2 (10 ng/mI).
(§5) Cells were plated in 96-well plates, 10,000 per well. Medium was changed to fresh medium and cells were pretreated with compounds for 1 hour. Toxins were added to give the following final concentrations: Sin-10 mM, Camptothecin 1 OM
(§6) After 24 hours, medium was removed and assayed for LDH activity using the Promega cytotox 96 kit (catalog# G1780). Results were calculated as percent protection against toxin-induced toxicity.
(§7) These compounds have been assessed for their efficacy in protection against cell death produced by toxic agents such as SIN-1 (3-morpholino-sydnonimine, producing peroxynitrite) and camptothecin. The target cells assessed in vitro are primary cultures of rodent oligodendrocyte progenitors and their mature counterparts.

mature oligodendrocytes = assay: Oligodendrocyte toxicity assay, protection of mature oligodendrocytes (OL) against SIN-1, LDH release; assay type: cell-based, rat; details: 10 nM compound, 1 hour pretreatment, SIN-1 toxin, LDH after 24 hours
Experimental: as §2, §3, §4
To generate mature oligodendrocytes, progenitor cells were switched to SFM supplemented with IGF-1 (10 ng/mi) 24 hours after plating and cells were grown under these conditions for 7 days prior to experimental assays.
as §5, §6, §7

ERα = molecular target: T2, ERα (Homo sapiens, UniProt P03372); assay: Fluorescence Polarization Competition Assay, ERα binding (Panvera kit); details: first ER column
T2 construct: purchased Panvera P2698
T2 sequence (P03372 1-595): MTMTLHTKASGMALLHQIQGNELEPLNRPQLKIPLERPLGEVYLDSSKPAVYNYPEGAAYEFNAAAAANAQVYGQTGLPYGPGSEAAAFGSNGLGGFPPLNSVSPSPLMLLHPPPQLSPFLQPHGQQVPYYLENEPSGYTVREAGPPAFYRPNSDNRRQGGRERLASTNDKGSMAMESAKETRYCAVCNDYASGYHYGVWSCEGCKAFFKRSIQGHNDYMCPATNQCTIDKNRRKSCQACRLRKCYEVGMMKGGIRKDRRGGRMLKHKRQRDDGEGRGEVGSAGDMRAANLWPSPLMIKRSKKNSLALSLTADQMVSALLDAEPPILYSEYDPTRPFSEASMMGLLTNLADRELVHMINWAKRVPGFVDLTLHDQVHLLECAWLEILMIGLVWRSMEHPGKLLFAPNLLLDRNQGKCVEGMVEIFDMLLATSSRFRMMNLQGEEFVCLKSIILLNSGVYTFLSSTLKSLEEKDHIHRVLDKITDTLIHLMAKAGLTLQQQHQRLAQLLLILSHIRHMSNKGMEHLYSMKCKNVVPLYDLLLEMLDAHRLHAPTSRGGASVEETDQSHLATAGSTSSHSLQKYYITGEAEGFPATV
Experimental: as §1

IC50 (ERβ) | ER[…] selectivity Fold Diff (ERβ) | IC50 (ERα) | SMILES | % Protection (SIN-1*) OLP 10 nM [1] | % Protection (SIN-1*) OL 10 nM (mature oligodendrocytes)
9 nM | 7 Fold | 60 nM | OCc1cc(Br)c(-c2ccc(O)cc2)c(Br)c1 [2,6-dibromo-4′-hydroxy-[1,1′-biphenyl]-4-methanol] | 51% | 11%
18 nM | 5 Fold | 93 nM | OCc1cc(Cl)c(-c2ccc(O)cc2)c(Cl)c1 [2,6-dichloro-4′-hydroxy-[1,1′-biphenyl]-4-methanol] | 36% | 6%
15 nM | 27 Fold | 408 nM | OCc1cc(Br)c(-c2ccc(O)cc2)c(-n2cccc2)c1 [2-bromo-4′-hydroxy-6-(1H-pyrrol-1-yl)-1,1′-biphenyl]-4-methanol] | 10% | 15%
8 nM | 16 Fold | 125 nM | O=[N+]([O-])c1cc(CO)cc(Br)c1-c1ccc(O)cc1 [2-bromo-4′-hydroxy-6-nitro-[1,1′-biphenyl]-4-methanol] | 16% | 12%
6 nM | 25 Fold | 157 nM | OCc1cc(Br)c(-c2ccc(O)cc2)c(-c2ccoc2)c1 [2-bromo-6-(furan-3-yl)-4′-hydroxy-[1,1′-biphenyl]-4-methanol] | 37% | 16%
37 nM | 11 Fold | 420 nM | CN(C)c1cc(CO)cc(Br)c1-c1ccc(O)cc1 [2-bromo-6-dimethylamino-4′-hydroxy-[1,1′-biphenyl]-4-methanol] | 45% | 12%
